Data: patent US10220046B2, “Compositions and methods for disease treatment using nanoparticle delivered compounds” (THE REGENTS OF THE UNIVERSITY OF MICHIGAN, priority 2014, dated 2019)
Non-standard residues stand in square brackets, D forms with d. No end group written: not given here.

What was measured:
[1] = sHDL nanoparticle formation and loading with additional anticancer agents; assay type: physicochemical; details: agent in place of WGA-TA
Source text: The composition as described in Example was made with various anticancer agents in place of WGA-TA.

[2] = Metabolite analysis in mouse plasma by LC-MS/MS; assay type: in vivo, CD-1 white mice; details: IV 4 mg/kg WGA-TA in dextran formulation, 30 minutes after administration
Description: CD-1 white mice were given an IV dosage of 4 mg/kg WGA-TA in dextran formulation. Samples of blood was collected at different time points in heparin treated tubes and the plasma collected after centrifugation at 13,000 rpm for 10 min and was frozen at −80° C. for later analysis. For the evaluation of metabolites, 300 uL of ice-cold acetonitrile was added to 100 uL of the mouse plasma and then centrifuged at 4° C. in 15000 rpm for 10 minutes. The top supernatant was dried under a stream of nitrogen gas. The residue was finally reconstituted in a 100 uL solution of 20% acetonitrile (80% water). Blank plasma needed for the control was prepared from untreated CD-1 white mice blood as above. As a negative control, blank plasma spiked with WGA-TA before extraction was used. The LC-MS/MS analysis was conducted using a Shimadzu HPLC system coupled with an API 4500 mass spectrometer (Applied Biosystems, MDS Sciex Toronto, Canada), equipped with an API electrospray ionization (ESI) source. Enhanced MS, product ion-scan, and MRM scan were used as a survey scan to identify metabolites of WGA-TA. Information dependent acquisition (IDA) was used to collect fragmentation of metabolite candidates or single experiment of enhanced product ion scan was applied to acquire fragmentation of metabolites after running survey scan. […]

SW13 MCAs = assay: Three dimensional multicellular aggregate (MCA) treatment; assay type: cell-based, human; details: in combination with 50 μg/ml sHDL, 24 h
Source text: (§1) To evaluate the translational potential of the combination therapy, three-dimensional multicellular aggregates were developed to mimic the in vivo tumor model as described by Jain et al. (Jain et al., Endocrine-related cancer. 2013 June; 20(3):361-70, herein incorporated by reference in its entirety). […] Untreated, sHDL alone treated cells served as controls. The MCAs were photographed before and after treatment and the MCAs were quantified by Image J software (NIH) as described by Jain et al.

NCI-H295R MCAs = assay: as above; assay type: cell-based, human; details: in combination with 50 μg/ml sHDL, 24 h
Source text: as §1

[3] = system: cortisol production of NCI-H295R cells; assay: Cortisol immunoassay of culture supernatant; assay type: cell-based, human; details: 24 h
Description: The cortisol immunoassay (Alpco, Salem, N.H.) was used to quantitate cortisol levels in the culture supernatant of steroid producing NCI-H295R cells after treatment with drug combinations (same as in clonogic assay) for 24 h per the manufacturer instructions. Briefly, culture supernatant after treatment was added to the antibody coated-plates containing assay buffer (45 minutes at 25° C.). After washing, tetra methyl benzidine (TMB) substrate was incubated at RT and absorbance measured using a Synergy Neo reader (BioTek, Winooski, Vt.).

SW13 cells [4] = assay: Apoptosis by flow cytometry (annexin V-FITC/propidium iodide); assay type: cell-based, human; details: combined with sHDL vs. drug alone, 24 h
Description: (§2) Following treatment, cells were washed, re-suspended in annexin binding buffer and stained using annexin V-FITC/Propidium iodide as previously described (Subramanian et al., World J. Surg., 2014, 38(6): 1343-52). Induction of apoptosis was measured using the CyAn ADP Analyzer (Beckman Coulter, Inc., Indianapolis, Ind.).

NCI-H295R cells [5] = assay: as above; assay type: cell-based, human; details: combination with sHDL vs. drug alone, 24 h
Description: as §2

[6] = system: genes involved in steroidogenesis in NCI-H295R cells; assay: Real time RT-PCR of genes involved in steroidogenesis; assay type: cell-based, human; details: combination with sHDL compared to monotherapy, 24 h; decreased for P and M, increased for E
Description: RNA from the NCI-H295R cells after drug treatment for 24 h was prepared using Qiagen RNA isolation kit (Qiagen Sciences, Valencia, Calif.). Approximately 500 ng of RNA was reverse transcribed using superscript RT kit from Life Technologies (Grand Island, N.Y.). qPCR was performed in a step-one RT PCR machine using the gene specific primer sets (Table 3) as published (11). Relative gene expression levels were calculated after normalization with internal control.

SW13 cells [7] = assay: Mitochondrial membrane potential (TMRE); assay type: cell-based, human; details: combination with sHDL vs. drug alone, 24 h
Description: (§3) SW13 and NCI-H295R were seeded in a 96 well black wall plate. Once attached, they were treated with the drugs as described above. 24 h post drug treatment, 500 nM tetramethylrhodamine, ethyl ester (TMRE) was added and the cells were incubated for 20 minutes at 37° C. and the fluorescent signal was measured after washing using a microplate reader (excitation=549, emission=575). 100 nM FCCP (carbonyl cyanide 4-(trifluoromethoxy)phenylhydrazone) was added to cells 10 minutes before the addition of TMRE as a negative control.

NCI-H295R cells [8] = assay: Mitochondrial membrane potential (TMRE); assay type: cell-based, human; details: combination with sHDL vs. drug alone, 24 h
Description: as §3

SW13 and NCI-H295R cells = assay: Cell viability assay (CellTiter-Glo) and combination index; assay type: cell-based, human
Description: Serial dilutions were made from the starting concentrations and viability of cells was then measured based on quantification of the ATP levels after treatment with CellTiter-Glo luminescent assay reagent as per the manufacturer's instruction (Promega, Madison, Wis.) with luminescence quantified using a BioTek Synergy Neo plate reader (BioTek, Winooski, Vt.). […] For all cell-based experiments, the experimental control group was defined, unless stated otherwise, as untreated cells or cells treated with single drug alone (when comparing to combination regimens).

SW13 cells [9] = assay: Colony formation assay; assay type: cell-based, human; details: clonogenic assay, 24 h treatment, with 50 μg/ml sHDL
Description: (§4) NCI-H295R and SW13 cells were plated in 6-well plates and allowed to attach. […] The medium was changed and surviving cells allowed to grow colonies of 50 cells or more for two weeks, then washed, fixed, and stained with coomassie blue and counted. Total colony numbers were normalized to untreated controls.

NCI-H295R cells [10] = assay: Colony formation assay; assay type: cell-based, human; details: clonogenic assay, 24 h treatment, with 50 μg/ml sHDL
Description: as §4

[11] = system: adrenocortical carcinoma (ACC); details: advanced ACC patients; cited from earlier work
LCAT = target: T1, LCAT (Homo sapiens, UniProt P04180); details: cited from earlier work
T1 sequence (P04180 25-440): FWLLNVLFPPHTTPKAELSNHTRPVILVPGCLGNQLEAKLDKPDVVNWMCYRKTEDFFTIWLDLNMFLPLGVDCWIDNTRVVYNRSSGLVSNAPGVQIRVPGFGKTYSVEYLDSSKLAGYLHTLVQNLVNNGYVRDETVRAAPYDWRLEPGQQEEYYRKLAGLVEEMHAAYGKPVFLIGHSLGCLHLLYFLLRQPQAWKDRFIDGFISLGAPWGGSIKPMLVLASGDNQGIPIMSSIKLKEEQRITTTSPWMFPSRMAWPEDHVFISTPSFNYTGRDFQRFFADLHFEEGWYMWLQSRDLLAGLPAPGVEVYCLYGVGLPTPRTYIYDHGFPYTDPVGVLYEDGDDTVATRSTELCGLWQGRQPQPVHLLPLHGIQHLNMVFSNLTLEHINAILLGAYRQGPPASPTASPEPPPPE

CC[C@@]1(O)C(=O)OCc2c1cc1n(c2=O)Cc2cc3cc(O)ccc3nc2-1 [10-hydroxy camptothecin]
nanoparticle formation and loading in sHDL [1]: Successful nanoparticle formation and loading

O=NN(CCCl)C(=O)NC1CCCCC1 [CCNU, lomustine]
nanoparticle formation and loading in sHDL [1]: Successful nanoparticle formation and loading

CC(=O)OCC1=C(C)C[C@H]([C@@H](C)C2CC[C@H]3[C@@H]4C[C@H]5O[C@]56[C@@H](OC(C)=O)C=CC(=O)[C@]6(COC(C)=O)[C@H]4CC[C@]23C)OC1=O (stereo partly shown) [WGA-TA, 4, 19, 27-triacetyl withalongolide A]
metabolic identification in plasma [2]: three deacetylation products

N.N.[Cl][Pt][Cl] [cisplatin]
reduction in MCAs (SW13 MCAs): approximately 50% | reduction in MCAs (NCI-H295R MCAs): Approximately 20% | decrease of cortisol production levels ([3]; drug alone vs. controls): 8.39% | decrease of cortisol production levels ([3]; in combination with sHDL): 82% | increase of necrotic cell death (SW13 cells [4]): 14.71% | increase in the percentage of apoptotic cells (early and late) (NCI-H295R cells [5]): 6.16% | HSD3B2 level [6]: 0.1 fold change | reduction in mitochondrial potential ΔΨ (SW13 cells [7]): 6.5% | reduction in mitochondrial potential ΔΨ (NCI-H295R cells [8]): 13.09%

CC(=O)O[C@@]12CO[C@@H]1C[C@H](O)[C@@]1(C)C(=O)[C@H](O)C3=C(C)[C@@H](OC(=O)[C@H](O)[C@@H](NC(=O)OC(C)(C)C)c4ccccc4)C[C@@](O)([C@@H](OC(=O)c4ccccc4)[C@H]21)C3(C)C [docetaxel]
nanoparticle formation and loading in sHDL [1]: Successful nanoparticle formation and loading

COc1cccc2c1C(=O)c1c(O)c3c(c(O)c1C2=O)C[C@@](O)(C(=O)CO)C[C@@H]3O[C@H]1C[C@H](N)[C@H](O)[C@H](C)O1 [doxorubicin]
combination index (CI) (SW13 and NCI-H295R cells; combined with sHDL nanoparticles (25 and 50 μg/ml), Chou-Talalay, 72 h): > 1

COc1cc([C@@H]2c3cc4c(cc3[C@@H](O[C@@H]3O[C@@H]5CO[C@@H](C)O[C@H]5[C@H](O)[C@H]3O)[C@H]3COC(=O)[C@H]23)OCO4)cc(OC)c1O [etoposide]
reduction in MCAs (SW13 MCAs): ~25% | reduction in MCAs (NCI-H295R MCAs): approximately 50% | higher reduction in viability, combination compared to single drug alone (SW13 cells [9]): 39.52% | higher reduction in viability, combination compared to single drug alone (NCI-H295R cells [10]): 44.6% | decrease of cortisol production levels ([3]; drug alone vs. controls): 82.1% | decrease of cortisol production levels ([3]; in combination with sHDL): not significantly different | increase of necrotic cell death (SW13 cells [4]): 21.33% | increase in the percentage of apoptotic cells (early and late) (NCI-H295R cells [5]): 36.46% | HSD3B2 level [6]: 2.1 fold change | reduction in mitochondrial potential ΔΨ (SW13 cells [7]): 31.54% | reduction in mitochondrial potential ΔΨ (NCI-H295R cells [8]): 9.2%

Clc1ccc(C(c2ccccc2Cl)C(Cl)Cl)cc1 (stereo not shown) [mitotane]
IC50 value (SW13 and NCI-H295R cells; SW13 cells compared to NCI-H295R cells): higher IC50 value | reduction in MCAs (SW13 MCAs): approximately 50% | reduction in MCAs (NCI-H295R MCAs): ~30% | improvement in survival rate [11]: 14-50 months | initial response rates [11]: 20-30% | higher reduction in viability, combination compared to single drug alone (SW13 cells [9]): 22.3% | higher reduction in viability, combination compared to single drug alone (NCI-H295R cells [10]): 39.1% | decrease of cortisol production levels ([3]; drug alone vs. controls): 84.7% | decrease of cortisol production levels ([3]; in combination with sHDL): not significantly different | increase of apoptotic cell death (SW13 cells [4]): 11.9% | increase in the percentage of apoptotic cells (early and late) (NCI-H295R cells [5]): 36.01% | HSD3B2 level [6]: 0.2 fold change | reduction in mitochondrial potential ΔΨ (SW13 cells [7]): 19.8% | reduction in mitochondrial potential ΔΨ (NCI-H295R cells [8]): 14.49%

CC(=O)O[C@H]1C(=O)[C@@]2(C)[C@H]([C@H](OC(=O)c3ccccc3)[C@]3(O)C[C@H](OC(=O)[C@H](O)[C@@H](NC(=O)c4ccccc4)c4ccccc4)C(C)=C1C3(C)C)[C@]1(OC(C)=O)CO[C@@H]1C[C@@H]2O [paclitaxel]
nanoparticle formation and loading in sHDL [1]: Successful nanoparticle formation and loading

Ac-PVLDEFREKLNEELEALKQKLK-NH2 [consensus 22-mer]
LCAT activation as compared with native ApoA-I (LCAT): 10%

PVLELFENLLERLLDALQKKLK (listed as Homo sapiens) [SEQ ID NO:2, ApoA-I agonist peptide]
LCAT activation as compared with native ApoA-I (LCAT): 86%

pVLELFENLLERLLDALQKKLK ([dP]VLELFENLLERLLDALQKKLK) [SEQ ID NO:3, ApoA-I agonist peptide with D-Pro at X1]
LCAT activation as compared with native ApoA-I (LCAT): 111%
